Columns and labels:
ECHCG - barnyard grass [1] = assay: Weed control in transplanted rice, Field trial #1; type: in vivo, Ehinochloa crus-galli; conditions: 42 days after application
Experimental: (§1) Field trials were conducted in rice using standard herbicide small plot research methodology. Plot size was 2 m^2 using 1.6 m diameter rings placed into the paddy soil with capability for flooding with water to represent flooded rice culture. There were 3 replicates per treatment. Rice was Japonica type that was sown in rice nursery boxes as per normal cultural practices, and then transplanted 30 days after sowing into flooded rings. The rice crop was grown using normal cultural practices for fertilization, seeding, watering, flooding and maintenance to ensure good growth of the crop and the weeds under seeded rice conditions in Taiwan. Ring plot water depth was maintained at 3 to 7 cm depth after transplanting. Just prior to treatment application, plot water was drained to maintain saturated soil in ring plot. Treatments were applied by hand and water was re-induced to 3 to 7 cm depth 24 hours after application. All treatments in the field trials were applied by mixing the treatments with soil just prior to application by hand into the ring plots at 5 to 7 days after transplanting. Commercially available products of penoxsulam and butachlor were mixed in water and sprayed onto 45 grams of soil, which is equivalent to the area treated at an application rate of 225 kg soil/ha. […]

ECHCG - barnyard grass [2] = assay: Weed control in transplanted rice, Field trial #2; type: in vivo, Ehinochloa crus-galli; conditions: 28 days after application
Experimental: Field trials were conducted in rice using standard herbicide small plot research methodology. Plot size was 2 m^2 using 1.6 m diameter rings placed into the paddy soil with capability for flooding with water to represent flooded rice culture. There were 3 replicates per treatment. Rice was Japonica type that was sown in rice nursery boxes as per normal cultural practices, and then transplanted 30 days after sowing into flooded rings. The rice crop was grown using normal cultural practices for fertilization, seeding, watering, flooding and maintenance to ensure good growth of the crop and the weeds under seeded rice conditions in Taiwan. Ring plot water depth was maintained at 3 to 7 cm depth after transplanting. Just prior to treatment application, plot water was drained to maintain saturated soil in ring plot. Treatments were applied by hand and water was re-induced to 3 to 7 cm depth 24 hours after application. All treatments in the field trials were applied by mixing the treatments with soil just prior to application by hand into the ring plots at 5 to 7 days after transplanting. Commercially available products of penoxsulam and butachlor were mixed in water and sprayed onto 45 grams of soil, which is equivalent to the area treated at an application rate of 225 kg soil/ha. For each 2 m^2 plot, 45 g soil was mixed with the appropriate formulated product amounts to treat 2 m^2 to achieve the desired application rates based on unit area of application (hectare). Treatments were rated as compared to the untreated control plots. Visual weed control was rated on a scale of 0 to 100 percent, where 0 corresponds to no injury and 100 corresponds to complete kill. The treated plots and control plots were rated blind at various intervals after application. Ratings were based of Percent (%) Visual weed control, where 0 corresponds to no injury and 100 corresponds to complete kill. Colby's equation was used to determine the herbicidal effects expected from the mixtures (Colby, S. R. Calculation of the synergistic and antagonistic response of herbicide combinations. Weeds 1967 15, 20-22). The following equation was used to calculate the expected activity of mixtures containing two active ingredients, A and B: Expected=A+B−(A×B/100) A=observed efficacy of active ingredient A at the same concentration as used in the mixture; B=observed efficacy of active ingredient B at the same concentration as used in the mixture.

MOOVA - pickerel weed = assay: Weed control in transplanted rice, Field trial #2; type: in vivo, Monochoria vaginalis; conditions: 28 days after application
Experimental: as §1

ISCRU - winklegrass = assay: Weed control in transplanted rice, Field trial #3; type: in vivo, Ischaemum rugosum; conditions: 42 days after application
Experimental: as §1

| Compound | ECHCG Obs - percent control observed (ECHCG - barnyard grass [1]; Butachlor 600 grams ai/ha) [%] | ECHCG Obs - percent control observed (ECHCG - barnyard grass [2]; Butachlor 300 grams ai/ha) [%] | MOOVA Obs - percent control observed (MOOVA - pickerel weed; Butachlor 300 grams ai/ha) [%] | ISCRU Obs - percent control observed (ISCRU - winklegrass; Butachlor 300 grams ai/ha) [%] | ECHCG Obs - percent control observed (ECHCG - barnyard grass [1]; Penoxsulam 30 grams ai/ha) [%] | ECHCG Obs - percent control observed (ECHCG - barnyard grass [2]; Penoxsulam 3.8 grams ai/ha) [%] | ECHCG Obs - percent control observed (ECHCG - barnyard grass [2]; Penoxsulam 7.5 grams ai/ha) [%] | ECHCG Obs - percent control observed (ECHCG - barnyard grass [2]; Penoxsulam 15 grams ai/ha) [%] | MOOVA Obs - percent control observed (MOOVA - pickerel weed; Penoxsulam 3.8 grams ai/ha) [%] | ISCRU Obs - percent control observed (ISCRU - winklegrass; Penoxsulam 13 grams ai/ha) [%] |
| --- | --- | --- | --- | --- | --- | --- | --- | --- | --- | --- |
| CCCCOCN(C(=O)CCl)c1c(CC)cccc1CC [Butachlor, N-butoxymethyl-2-chloro-2′,6′-diethylacetanilide] | 0 | 13 | 26 | 23 | – | – | – | – | – | – |
| COc1cnc(OC)n2nc(NS(=O)(=O)c3c(OCC(F)F)cccc3C(F)(F)F)nc12 [Penoxsulam] | – | – | – | – | 27 | 0 | 15 | 88 | 75 | 1 |
